From patent US5977386A, “6-thio-substituted paclitaxels” (Bristol-Myers Squibb Company, priority 1997, dated 1999)
Where two headings read alike, the source gives them in different places.

Columns and labels:
[1] = system: M5076 murine sarcoma; experiment: sc M5076 murine sarcoma model, tumor growth delay; assay type: in vivo; conditions: sc M5076, iv on days 1, 3, 5, 7, and 9 post-implant, at optimal dose
Method: M5076: Taxane derivatives were tested in the M5076 murine sarcoma model using the general materials and methods described by Rose, W. C. in Anticancer Research 6: 557-562, 1986, for subcutaneous M5076 implants, with the following modifications: treatments were administered intravenously on Days 1, 3, 5, 7, and 9 post-tumor implant using eight mice per treatment and untreated control group. Activity was determined based on an increase in lifespan (as described in the preceding reference) of […], and, in particular, on a delay in tumor growth equivalent to at least 1 gross log cell kill (LCK). The latter was calculated as described in Rose, W. C. and Basler, G. A. in In Vivo 4: 391-396, 1990.
(§1) ^a Optimal dose (mg/kg/inj) if active, otherwise, maximal tolerated
(§2) dose (MTD) or highest dose tested.

[2] = system: M109 lung carcinoma; experiment: Mice M109 Model (In-Vivo), ip M109 lung carcinoma, median survival; set-up: species or system mouse; conditions: ip M109, Balb/c×DBA/2 F1 mice, ip injections days 5 and 8 post-implant, at optimal dose
Method: Balb/c×DBA/2 F1 hybrid mice were implanted intraperitoneally, as described by William Rose in Evaluation of Madison 109 Lung Carcinoma as a Model for Screening Antitumor Drugs, Cancer Treatment Reports, 65, No. 3-4 (1981), with 0.5 mL of a 2% (w/v) brei of M109 lung carcinoma.
Mice were treated with compounds under study by receiving intraperitoneal injections of various doses on days 5 and 8 post-implant. Mice were followed daily for survival until approximately 75 days post-tumor implant. One group of mice per experiment remained untreated and served as the control group.
Median survival times of compound-treated (T) mice were compared to the median survival time of the control (C) mice. The ratio of the two values for each compound-treated group of mice was multiplied by 100 and expressed as a percentage (i.e. % T/C) in the following Table II for representative compounds.
as §1, §2

[3] = system: HCT-116 human colon carcinoma cells; experiment: MTS cytotoxicity assay (72 h exposure); assay type: cell-based
Method: Cytoxicity was assessed in HCT-116 human colon carcinoma cells by MTS (3-(4,5-dimethylthiazol-2-yl)-5-(3-carboxymethoxyphenyl)-2-(4-sulphenyl)-2H-tetrazolium, inner salt) assay as reported in T. L. Riss, et. al., "Comparison of MTT, XTT, and a novel tetrazolium compound MTS for in vitro proliferation and chemosensitivity assays.," Mol. Biol. Cell 3 (Suppl.):184a, 1992. Cells were plated at 4,000 cell/well in 96 well microtiter plates and 24 hours later drugs were added and serial diluted. The cells were incubated at 37° for 72 hours at which time the tetrazolium dye, MTS at 333 μg/ml (final concentration), in combination with the electron coupling agent phenazine methosulfate at 25 μM (final concentration) was added. A dehydrogenase enzyme in live cells reduces the MTS to a form that absorbs light at […] which can be quantitated spectrophotometrically. The greater the absorbance the greater the number of live cells. The results are expressed as an IC50, which is the drug concentration required to inhibit cell proliferation (i.e. absorbance at 450 nm) to 50% of that of untreated control cells. The IC50 values for compounds evaluated in this assay are evaluated in Table I.
^1 Cytotoxicity was determined after a 72 h exposure by MTS assay.

[4] = Homo sapiens, HCT-116, 72 h, read-out: Cytotoxicity Assay IC50 against HCT 116 Human colon tumor cell line
[5] = Homo sapiens, HCT-116, read-out: Cytotoxicity Assay IC50 against HCT 116 Human colon tumor cell line

SMILES	Maximum T-C in LCK (gross log cell kill) [1] [LCK]	Maximum % T/C (ratio of median survival times treated/control x 100) [2] [%]	IC50 [3, 4] [nM]	IC50 ([3]; 4320 min, read-out: Cytotoxicity Assay IC50 against HCT 116 Human colon tumor cell line) [nM]	IC50 [3, 5] [nM]
CC(=O)O[C@H]1C(=O)[C@]2(C)C[C@@H](SC#N)[C@H]3OC[C@@]3(OC(C)=O)[C@H]2[C@H](OC(=O)c2ccccc2)[C@]2(O)C[C@H](OC(=O)[C@H](O)[C@@H](NC(=O)c3ccccc3)c3ccccc3)C(C)=C1C2(C)C [Compound 17, 7-deoxy-6β-thiocyanato-paclitaxel]	0.7	194	3.8		
CC(=O)O[C@H]1C(=O)[C@]2(C)C[C@@H](Sc3ccccc3)[C@H]3OC[C@@]3(OC(C)=O)[C@H]2[C@H](OC(=O)c2ccccc2)[C@]2(O)C[C@H](OC(=O)[C@H](O)[C@@H](NC(=O)c3ccccc3)c3ccccc3)C(C)=C1C2(C)C [Compound 52, 6b-thiophenyl-7-deoxy-paclitaxel]		114	0.58		
C=CCOC(=O)CS[C@@H]1C[C@@]2(C)C(=O)[C@H](OC(C)=O)C3=C(C)[C@@H](OC(=O)[C@H](O)[C@@H](NC(=O)c4ccccc4)c4ccccc4)C[C@@](O)([C@@H](OC(=O)c4ccccc4)[C@@H]2[C@]2(OC(C)=O)CO[C@H]12)C3(C)C [Compound 42, 7-deoxy-6b-allyl thioacetatepaclitaxel]		106	9		
CC(=O)O[C@H]1C(=O)[C@]2(C)C[C@@H]([S+](C)[O-])[C@H]3OC[C@@]3(OC(C)=O)[C@H]2[C@H](OC(=O)c2ccccc2)[C@]2(O)C[C@H](OC(=O)[C@H](O)[C@@H](NC(=O)c3ccccc3)c3ccccc3)C(C)=C1C2(C)C (single isomer, unassigned) [Compound 19, 7-deoxy-6β-methyl sulfoxide-paclitaxel]	0.4	169		50.9	
CC(=O)O[C@H]1C(=O)[C@]2(C)C[C@@H](SCC(=O)O)[C@H]3OC[C@@]3(OC(C)=O)[C@H]2[C@H](OC(=O)c2ccccc2)[C@]2(O)C[C@H](OC(=O)[C@H](O)[C@@H](NC(=O)c3ccccc3)c3ccccc3)C(C)=C1C2(C)C [Compound 55]		107			> 108
CC(=O)O[C@H]1C(=O)[C@]2(C)C[C@@H](S(C)(=O)=O)[C@H]3OC[C@@]3(OC(C)=O)[C@H]2[C@H](OC(=O)c2ccccc2)[C@]2(O)C[C@H](OC(=O)[C@H](O)[C@@H](NC(=O)c3ccccc3)c3ccccc3)C(C)=C1C2(C)C [Compound 21, 7-deoxy6β-methyl sulfone-paclitaxel]	0	147			> 109
